Key:
Assay in all cases: fitness (endpoint OD595 vs no drug) (fraction); higher = more growth
S. aureus Newman = test system: S. aureus Newman
How it was run: (§1)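 Fitness expresses the optical density reached at the stationary-phase transition as a fraction of the robust mean of no-drug control wells. It is capped at 1. Measurements were OD595 every 30 min for 14 h at 37 °C after inoculation of 384-well plates at OD595 0.01 (30 µl, or 55 µl for S. pneumoniae), minus the first reading.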

S. pneumoniae D39V = test system: S. pneumoniae D39V
How it was run: as §1

B. subtilis 168 = test system: B. subtilis 168
How it was run: as §1
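Also: OD595 on entry to stationary phase over no-drug wells; at most 1.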

CC[C@H]1OC(=O)[C@H](C)[C@@H](O[C@H]2C[C@@](C)(OC)[C@@H](O)[C@H](C)O2)[C@H](C)[C@@H](O[C@@H]2O[C@H](C)C[C@H](N(C)C)[C@H]2O)[C@](C)(O)C[C@@H](C)CN(C)[C@H](C)[C@@H](O)[C@]1(C)O [Azithromycin] + CC1(C)S[C@@H]2[C@H](NC(=O)Cc3ccccc3)C(=O)N2[C@H]1C(=O)O [Penicillin G]
fitness, S. aureus Newman
Conditions | first compound 0.125 µg/mL | first compound 0.25 µg/mL | first compound 0.5 µg/mL
partner 0.0195 µg/mL | 0.844 | 0.729 | 0.513
partner 0.039 µg/mL | 0.822 | 0.77 | 0.452
partner 0.078 µg/mL | 0.775 | 0.741 | 0.411

CC1=C(C(=O)O)N2C(=O)[C@@H](NC(=O)[C@H](N)c3ccccc3)[C@H]2SC1 [Cephalexin] + CC1(C)S[C@@H]2[C@H](NC(=O)Cc3ccccc3)C(=O)N2[C@H]1C(=O)O [Penicillin G]
fitness, S. aureus Newman
Conditions | first compound 0.25 µg/mL | first compound 0.5 µg/mL | first compound 1 µg/mL
partner 0.0195 µg/mL | 0.891 | 0.785 | 0.811
partner 0.039 µg/mL | 0.927 | 0.937 | 0.908
partner 0.078 µg/mL | 0.875 | 0.897 | 0.944

O=C(O)[C@H]1/C(=C/CO)O[C@@H]2CC(=O)N21 [Clavulanic acid] + C/C(=C\C(=O)OCCCCCCCCC(=O)O)C[C@@H]1OC[C@H](C[C@@H]2O[C@H]2[C@@H](C)[C@H](C)O)[C@@H](O)[C@H]1O [Pseudomonic acid]
fitness, S. pneumoniae D39V
Conditions | first compound 0.5 µg/mL | first compound 1 µg/mL | first compound 2 µg/mL
partner 0.03 µg/mL | 0.921 | 0.906 | 0.832
partner 0.06 µg/mL | 0.769 | 0.803 | 0.656
partner 0.12 µg/mL | 0.408 | 0.519 | 0.277

O=C(O)[C@H]1/C(=C/CO)O[C@@H]2CC(=O)N21 [Clavulanic acid] + CC1(C)S[C@@H]2[C@H](NC(=O)Cc3ccccc3)C(=O)N2[C@H]1C(=O)O [Penicillin G]
fitness, S. aureus Newman, one replicate
Conditions | first compound 0.03125 µg/mL | first compound 0.0625 µg/mL | first compound 0.125 µg/mL
partner 0.0195 µg/mL | 0.934 | 0.859 | 0.796
partner 0.039 µg/mL | 0.851 | 0.819 | 0.712
partner 0.078 µg/mL | 0.846 | 0.694 | 0.613

O=C(O)[C@H]1/C(=C/CO)O[C@@H]2CC(=O)N21 [Clavulanic acid] + CC(=O)NC[C@H]1CN(c2ccc(N3CCOCC3)c(F)c2)C(=O)O1 [Linezolid]
B. subtilis 168, partner 0.0625 µg/mL, one replicate
Conditions | fitness
first compound 1.5 µg/mL | 0.85
first compound 3 µg/mL | 0.773
first compound 6 µg/mL | 0.789

fitness
Conditions | partner 0.105 µg/mL | partner 0.125 µg/mL | partner 0.2 µg/mL | partner 0.21 µg/mL | partner 0.25 µg/mL | partner 0.4 µg/mL | partner 0.42 µg/mL | partner 0.5 µg/mL | partner 0.8 µg/mL
B. subtilis 168, first compound 1.5 µg/mL | – | 0.659 | – | – | 0.247 | – | – | 0.0633 | –
B. subtilis 168, first compound 3 µg/mL | – | 0.597 | – | – | 0.184 | – | – | 0.025 | –
B. subtilis 168, first compound 6 µg/mL | – | 0.585 | – | – | 0.151 | – | – | 0.0316 | –
S. pneumoniae D39V, first compound 0.5 µg/mL | 0.808 | – | 0.474 | 0.658 | – | 0.261 | 0.453 | – | 0.075
S. pneumoniae D39V, first compound 1 µg/mL | 0.801 | – | 0.531 | 0.67 | – | 0.363 | 0.443 | – | 0.226
S. pneumoniae D39V, first compound 2 µg/mL | 0.749 | – | 0.392 | 0.567 | – | 0.22 | 0.238 | – | 0.102

O=C(O)[C@H]1/C(=C/CO)O[C@@H]2CC(=O)N21 [Clavulanic acid] + CCC(C)C1C(=O)NC(=C)C(=O)NC(C(=O)NC(CSCC(C(=O)N1)NC(=O)/C(=C/C)/NC(=O)C(C(C)CC)N)C(=O)NC2C(SCC(NC(=O)CNC(=O)C3CCCN3C2=O)C(=O)NC(CCCCN)C(=O)NC4C(SCC(NC(=O)CNC(=O)C(NC(=O)C(NC(=O)C(NC(=O)CNC4=O)C)CC(C)C)CCSC)C(=O)NC(CC(=O)N)C(=O)NC(CCSC)C(=O)NC(CCCCN)C(=O)NC5C(SCC6C(=O)NC(C(=O)NC(CSC(C(C(=O)N6)NC(=O)C(NC5=O)C)C)C(=O)NC(CO)C(=O)NC(C(C)CC)C(=O)NC(CC7=CN=CN7)C(=O)NC(C(C)C)C(=O)NC(=C)C(=O)NC(CCCCN)C(=O)O)CC8=CN=CN8)C)C)C)CC(C)C [Nisin]
main component drawn
Conditions | fitness
B. subtilis 168, first compound 1.5 µg/mL, partner 0.5 µg/mL | 0.814
B. subtilis 168, first compound 1.5 µg/mL, partner 1 µg/mL | 0.775
B. subtilis 168, first compound 1.5 µg/mL, partner 2 µg/mL | 0.541
B. subtilis 168, first compound 3 µg/mL, partner 0.5 µg/mL | 0.797
B. subtilis 168, first compound 3 µg/mL, partner 1 µg/mL | 0.769
B. subtilis 168, first compound 3 µg/mL, partner 2 µg/mL | 0.595
B. subtilis 168, first compound 6 µg/mL, partner 0.5 µg/mL | 0.738
B. subtilis 168, first compound 6 µg/mL, partner 1 µg/mL | 0.703
B. subtilis 168, first compound 6 µg/mL, partner 2 µg/mL | 0.485
S. pneumoniae D39V, first compound 0.5 µg/mL, partner 0.4275 µg/mL | 0.973
S. pneumoniae D39V, first compound 0.5 µg/mL, partner 1.6 µg/mL | 0.0053
S. pneumoniae D39V, first compound 0.5 µg/mL, partner 1.71 µg/mL | 0.0946
S. pneumoniae D39V, first compound 0.5 µg/mL, partner 3.2 µg/mL | 0.0291
S. pneumoniae D39V, first compound 0.5 µg/mL, partner 6.4 µg/mL | 0.0063
S. pneumoniae D39V, first compound 1 µg/mL, partner 0.4275 µg/mL | 0.982
S. pneumoniae D39V, first compound 1 µg/mL, partner 1.6 µg/mL | 0.16
S. pneumoniae D39V, first compound 1 µg/mL, partner 1.71 µg/mL | 0.0481
S. pneumoniae D39V, first compound 1 µg/mL, partner 3.2 µg/mL | 0.154
S. pneumoniae D39V, first compound 1 µg/mL, partner 6.4 µg/mL | 0.16
S. pneumoniae D39V, first compound 2 µg/mL, partner 0.4275 µg/mL | 0.929
S. pneumoniae D39V, first compound 2 µg/mL, partner 0.855 µg/mL | 0.617
S. pneumoniae D39V, first compound 2 µg/mL, partner 1.6 µg/mL | 0.0042
S. pneumoniae D39V, first compound 2 µg/mL, partner 1.71 µg/mL | 0.0736
S. pneumoniae D39V, first compound 2 µg/mL, partner 3.2 µg/mL | 0.0076
S. pneumoniae D39V, first compound 2 µg/mL, partner 6.4 µg/mL | 0.0001

fitness, B. subtilis 168, one replicate, main component drawn
Conditions | partner 1.25 µg/mL | partner 1.6 µg/mL | partner 2.5 µg/mL | partner 3.2 µg/mL | partner 4 µg/mL | partner 5 µg/mL | partner 6.4 µg/mL | partner 8 µg/mL | partner 16 µg/mL
first compound 1.5 µg/mL | 0.802 | 0.697 | 0.537 | 0.0178 | 0.0192 | 0.0574 | 0.0673 | 0.0099 | 0.0067
first compound 3 µg/mL | 0.765 | 0.733 | 0.48 | 0.0108 | 0.178 | 0.0615 | 0.0551 | 0.0036 | 0.0134
first compound 6 µg/mL | 0.57 | 0.67 | 0.182 | 0.0221 | 0.117 | 0.0792 | 0.0542 | 0.0002 | 0
